Data reported in patent US20240148821A1, “PHARMACEUTICAL USE OF CYCLIC PEPTIDE COMPOUND” (CHUGAI SEIYAKU KABUSHIKI KAISHA, priority 2021, published 2024).
Numbered stars: 1 amine (or outer) side, 2 acyl side, 3 side chain; on linkers, the order of the positions; unused ones are H or OH. Bridge positions count the residues as written; N and C are the ends. Square brackets hold non-standard residues; d marks the D form. Peptide text beside a SMILES is read from it. * marks the point of attachment. hPhe(3,5-F2-4-CF3) = N[C@@H](CCc1cc(F)c(C(F)(F)F)c(F)c1)C(=O)O; hPhe(3-Cl-4-CF3) = N[C@@H](CCc1ccc(C(F)(F)F)c(Cl)c1)C(=O)O; hPhe(3-F,4-CF3) = N[C@@H](CCc1ccc(C(F)(F)F)c(F)c1)C(=O)O; NEtPhe(4-CF3) = CCN[C@@H](Cc1ccc(C(F)(F)F)cc1)C(=O)O; hPhe(4-CF3) = N[C@@H](CCc1ccc(C(F)(F)F)cc1)C(=O)O; X37 = CC(C)(C)NC(=O)COC[C@H](CC(=O)[*:1])N[*:2]; NMePhe(4-Cl) = CN[C@@H](Cc1ccc(Cl)cc1)C(=O)O; NMePhe(3-F) = CN[C@@H](Cc1cccc(F)c1)C(=O)O; NMedβ3hAla = C[C@H](CC(=O)[*:2])N(C)[*:1]; NMeGly(cPent) = CN[C@H](C(=O)O)C1CCCC1; NMeAla(cPr) = CN[C@@H](CC1CC1)C(=O)O; NMeCha = CN[C@@H](CC1CCCCC1)C(=O)O; Hyp = O=C(O)[C@@H]1C[C@@H](O)CN1; NMeChg = CN[C@H](C(=O)O)C1CCCCC1; NMeF = CN[C@@H](Cc1ccccc1)C(=O)O; NMeI = CC[C@H](C)[C@H](NC)C(=O)O; d(β3hL) = CC(C)C[C@@H](N)CC(=O)O; NMeD = CN[C@@H](CC(=O)O)C(=O)O; NMeL = CN[C@@H](CC(C)C)C(=O)O; Tle = CC(C)(C)[C@H](N)C(=O)O; NMeV = CN[C@H](C(=O)O)C(C)C; d(β3hA) = C[C@@H](N)CC(=O)O; NMeS = CN[C@@H](CO)C(=O)O; Morpholide = C1CN(*)CCO1; NMeA = CN[C@@H](C)C(=O)O; Piperidide = C1CCN(*)CC1; dNMeA = CN[C@H](C)C(=O)O; Ac5c = NC1(C(=O)O)CCCC1; Aze = O=C(O)[C@@H]1CCN1; CH2CMe2OH = CC(C)(O)C*; Sar = CNCC(=O)O; Propyl = CCC*

These molecules were tested against protein-protein interaction between Kras and SOS1 (biotin-tagged human Kras loaded with GDP, His-tagged human SOS1) (Homo sapiens (Human), UniProt P01116, G12D) (assay: Protein-protein interaction inhibition between Kras and SOS1 (KrasG12D-SOS PPI) using AlphaScreen). Settings: AlphaScreen; biotin-tagged human Kras loaded with GDP, His-tagged human SOS1; read-out: KRAS G12D-SOS PPI IC50.
Assay type: biochemical

Structure (SMILES)	IC50 [nM]
CC[C@H](C)[C@@H]1NC(=O)[C@H](C(C)C)N(C)C(=O)C[C@@H](COCC(=O)NC(C)(C)C)NC(=O)[C@H](CC(C)C)N(C)C(=O)C2(CCCC2)NC(=O)[C@H](CC(C)C)N(C)C(=O)[C@H](CCc2ccc(C(F)(F)F)cc2)NC(=O)CN(C)C(=O)[C@H](Cc2ccc(Cl)cc2)N(C)C(=O)CN(C)C(=O)CN(C)C1=O [Compound 759] ([NMeV]I[Sar][Sar][NMePhe(4-Cl)][Sar][hPhe(4-CF3)][NMeL][Ac5c][NMeL]; linker N-C via X37)	160
CC[C@H](C)[C@@H]1NC(=O)[C@H](C)N(C)C(=O)C[C@@H](C)NC(=O)[C@H](CC(C)C)N(C)C(=O)[C@H](Cc2ccccc2)N(C)C(=O)[C@H](C(C)(C)C)NC(=O)[C@H](CCc2ccc(C(F)(F)F)cc2)NC(=O)CN(C)C(=O)[C@H](Cc2ccc(Cl)cc2)N(C)C(=O)CN(C)C(=O)CN(C)C1=O [Compound 764] (cyclo(I[Sar][Sar][NMePhe(4-Cl)][Sar][hPhe(4-CF3)][Tle][NMeF][NMeL][d(β3hA)][NMeA]))	83
CC[C@H](C)[C@@H]1NC(=O)[C@H](CC2CC2)N(C)C(=O)C[C@@H](C)NC(=O)[C@H](C(C)C)N(C)C(=O)C2(CCCC2)NC(=O)[C@@H]2CCCN2C(=O)[C@H](CCc2ccc(C(F)(F)F)c(Cl)c2)NC(=O)CN(C)C(=O)[C@H](CC2CCCCC2)N(C)C(=O)[C@@H]2CCN2C(=O)[C@H](C)N(C)C1=O [Compound 771] (cyclo([Ac5c][NMeV][d(β3hA)][NMeAla(cPr)]I[NMeA][Aze][NMeCha][Sar][hPhe(3-Cl-4-CF3)]P))	25
CCCOC[C@H]1C(=O)N(C)CC(=O)N[C@@H](CCc2ccc(C(F)(F)F)c(F)c2)C(=O)N2CCC[C@H]2C(=O)NC2(CCCC2)C(=O)N(C)[C@@H](C2CCCC2)C(=O)N(C)[C@H](C)CC(=O)N(C)[C@@H](CC(C)C)C(=O)N[C@@H]([C@@H](C)CC)C(=O)N(C)[C@@H](C)C(=O)N2CC[C@H]2C(=O)N1C [Compound 776] (cyclo([Ac5c][NMeGly(cPent)][NMedβ3hAla][NMeL]I[NMeA][Aze][NMeS](Propyl)[Sar][hPhe(3-F,4-CF3)]P))	7.3
CCO[C@@H]1C[C@H]2C(=O)NC3(CCCC3)C(=O)N(C)[C@@H](C3CCCC3)C(=O)N(C)[C@H](C)CC(=O)N(C)[C@@H](CC(C)C)C(=O)N[C@@H]([C@@H](C)CC)C(=O)N[C@@H](C)C(=O)N3CC[C@H]3C(=O)N(CC)[C@@H](Cc3ccc(C(F)(F)F)cc3)C(=O)N(C)CC(=O)N[C@@H](CCc3cc(F)c(C(F)(F)F)c(F)c3)C(=O)N2C1 [Compound 785] (cyclo(A[Aze][NEtPhe(4-CF3)][Sar][hPhe(3,5-F2-4-CF3)][Hyp](Et)[Ac5c][NMeGly(cPent)][NMedβ3hAla][NMeL]I))	3.5
CC[C@H](C)[C@@H]1NC(=O)[C@H](CC(C)C)N(C)C(=O)C[C@@H](C(=O)N2CCCCC2)N(C)C(=O)[C@H](C2CCCCC2)N(C)C(=O)C2(CCCC2)NC(=O)[C@H](COCC(C)(C)O)N(C)C(=O)[C@H](CCc2ccc(C(F)(F)F)c(Cl)c2)NC(=O)CN(C)C(=O)[C@H](CC2CCCCC2)N(C)C(=O)CN(C)C(=O)CN(C)C1=O [Compound 789] ([NMeL]I[Sar][Sar][NMeCha][Sar][hPhe(3-Cl-4-CF3)][NMeS](CH2CMe2OH)[Ac5c][NMeChg][NMeD]-Piperidide; lactam N-11)	0.61
CC[C@H](C)[C@@H]1NC(=O)[C@H](CC(C)C)N(C)C(=O)C[C@@H](C(=O)N2CCOCC2)N(C)C(=O)[C@H]([C@@H](C)CC)N(C)C(=O)C2(CCCC2)NC(=O)[C@@H]2CCCN2C(=O)[C@H](CCc2ccc(C(F)(F)F)c(F)c2)NC(=O)CN(C)C(=O)[C@H](CC2CCCCC2)N(C)C(=O)[C@@H]2CCN2C(=O)[C@H](C)N(C)C1=O [Compound 790] ([NMeL]I[NMeA][Aze][NMeCha][Sar][hPhe(3-F,4-CF3)]P[Ac5c][NMeI][NMeD]-Morpholide; lactam N-11)	2.5
CC[C@H](C)[C@@H]1NC(=O)[C@H](C)N(C)C(=O)C[C@@H](C)NC(=O)[C@H](C2CCCC2)N(C)C(=O)C2(CCCC2)NC(=O)[C@@H]2CCCN2C(=O)[C@H](CCc2ccc(C(F)(F)F)c(Cl)c2)NC(=O)[C@@H](C)N(C)C(=O)[C@H](Cc2cccc(F)c2)N(C)C(=O)[C@@H]2CCN2C(=O)[C@H](C)N(C)C1=O [Compound 795] (cyclo([Ac5c][NMeGly(cPent)][d(β3hA)][NMeA]I[NMeA][Aze][NMePhe(3-F)][dNMeA][hPhe(3-Cl-4-CF3)]P))	72
CC[C@H](C)[C@@H]1NC(=O)[C@H](CC(C)C)N(C)C(=O)C[C@@H](CC(C)C)NC(=O)[C@H]([C@@H](C)CC)N(C)C(=O)C2(CCCC2)NC(=O)[C@@H]2CCCN2C(=O)[C@H](CCc2ccc(C(F)(F)F)c(Cl)c2)NC(=O)CN(C)C(=O)[C@H](CC2CCCCC2)N(C)C(=O)[C@@H]2CCN2C(=O)[C@H](C)N(C)C1=O [Compound 798] (cyclo([Ac5c][NMeI][d(β3hL)][NMeL]I[NMeA][Aze][NMeCha][Sar][hPhe(3-Cl-4-CF3)]P))	59
